Data reported in patent EP1585727B1, “INDOLES USEFUL IN THE TREATMENT OF ANDROGEN-RECEPTOR RELATED DISEASES” (priority 2002, dated 2004).
Structures can show the parent of a compound that is named as a salt. Where two headings read alike, the source gives them in different places.

Experiments:
human androgen receptor [1] = target: T1, human androgen receptor (Homo sapiens, UniProt P10275); assay: Androgen receptor transactivation assay, androgenic activity in the presence of 0.1 µmol/l onapristone (CHO-AR-pMMTV-LUC cells; Table 5); format: cell-based; conditions: for ago efficacy: maximal intrinsic activity in the presence of 100 nM DHT set at 1.00; for ago potency: potency expressed as percentage of DHT activity
T1 construct: expressed in transfected cells; host or cells: Chinese hamster ovary (CHO) cells, cell line CHO-AR-pMMTV-LUC 1G12-A5-CA
T1 sequence (P10275 1-920): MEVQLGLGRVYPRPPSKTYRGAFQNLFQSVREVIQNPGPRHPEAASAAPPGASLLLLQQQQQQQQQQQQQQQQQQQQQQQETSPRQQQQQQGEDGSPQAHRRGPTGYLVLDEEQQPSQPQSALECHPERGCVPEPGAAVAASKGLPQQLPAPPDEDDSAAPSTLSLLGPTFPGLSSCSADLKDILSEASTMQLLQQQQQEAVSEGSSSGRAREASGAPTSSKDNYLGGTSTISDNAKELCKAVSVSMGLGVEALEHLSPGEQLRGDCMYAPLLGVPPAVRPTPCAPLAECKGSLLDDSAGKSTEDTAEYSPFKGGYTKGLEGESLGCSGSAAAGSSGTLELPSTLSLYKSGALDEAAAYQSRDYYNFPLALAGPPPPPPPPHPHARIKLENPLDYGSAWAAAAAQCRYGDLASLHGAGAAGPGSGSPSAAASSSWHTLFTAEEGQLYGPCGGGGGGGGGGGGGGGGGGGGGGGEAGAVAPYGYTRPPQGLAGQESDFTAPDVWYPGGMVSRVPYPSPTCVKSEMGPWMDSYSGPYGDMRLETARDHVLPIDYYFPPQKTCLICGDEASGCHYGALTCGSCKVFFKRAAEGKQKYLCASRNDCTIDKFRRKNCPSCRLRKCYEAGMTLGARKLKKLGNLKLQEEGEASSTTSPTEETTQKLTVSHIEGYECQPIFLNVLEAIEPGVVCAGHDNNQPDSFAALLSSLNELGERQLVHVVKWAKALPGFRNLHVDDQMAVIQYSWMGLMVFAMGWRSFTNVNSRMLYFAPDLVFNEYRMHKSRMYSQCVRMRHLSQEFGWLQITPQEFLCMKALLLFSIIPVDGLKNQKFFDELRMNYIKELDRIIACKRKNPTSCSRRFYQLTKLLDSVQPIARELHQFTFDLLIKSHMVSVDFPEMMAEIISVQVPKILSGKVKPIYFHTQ
Procedure: The androgenic activity (EC50, potency, and efficacy) of the compounds in Table 5 was determined in an in vitro bioassay of Chinese hamster ovary (CHO) cells stably transfected with the human androgen receptor expression plasmid and a reporter plasmid in which the MMTV promotor is linked to the luciferase reporter gene. The cell line CHO-AR-pMMTV-LUC 1G12-A5-CA is described in Schoonen et al. (J. Steroid Biochem. Molec. Biol. […]; 74: 213-222). The androgen receptor activity of compounds was determined in the presence of 0.1 µmol/l onapristone. The maximal efficacy in the presence of 100 nmol/l DHT was set as 100%. The potencies are expressed as percentage of DHT activity. Table 5 Androgen receptor activity

human androgen receptor [2] = target: T1, human androgen receptor; assay: Androgen receptor transactivation assay, antiandrogenic activity: inhibition of transactivation in the presence of 1 nM DHT (CHO-AR-pMMTV-LUC cells; Table 4); format: cell-based; conditions: for Emax: intrinsic activity relative to reference antiandrogen Hydroxyflutamide (set at 100%); for EC50: antiandrogenic activity, read-out: ant EC50
Procedure: Compounds were tested for their Androgen Receptor activity in a transactivation assay and in a binding assay.
The (anti-)androgenic activity of test compounds (EC50 and intrinsic activity) was determined in an in vitro bioassay of Chinese hamster ovary (CHO) cells stably transfected with the human androgen receptor expression plasmid and a reporter plasmid in which the MMTV-promoter is linked to the luciferase reporter gene. The cell-line CHO-AR-pMMTV-LUC 1G12-AS-CA is described in Schoonen et al. (2000), Journal of Steroid Biochemistry and Molecular Biology 74(4):213-222. The antiandrogenic activity of a test compound was determined by the inhibition of the transactivation via the androgen receptor of the enzyme luciferase in the presence of 1 nM DHT (5 α-dihydrotestosterone, 17β-hydroxy-5α-androstan-3-one). Intrinsic activity of antiandrogenic activity was determined in the presence of the reference antiandrogen 2-Hydroxy-2-methyl-N-(4-nitro-3-trifluoromethyl-phenyl)-propionamide (Hydroxyflutamide), and set at 100%. For androgenic activity, maximal intrinsic activity in the presence of 100 nM DHT was set at 100%. Table 4 Androgen receptor activity

[3] = in the presence of 1 nM DHT, read-out: ant efficacy
[4] = read-out: ant efficacy, in the presence of 1 nM DHT

Compound	Emax (human androgen receptor [2]; [3]) [%]	also measured
N#Cc1cccc(Cn2cc(Sc3ccccc3[N+](=O)[O-])c3ccc(C#N)cc32)c1 [Compound 125, 1-(3-Cyano-benzyl)-3-(2-nitro-phenylsulfanyl)-1H-indole-6-carbonitrile]	–	ago efficacy (human androgen receptor [1]): ++ (≥0.80); ago potency (human androgen receptor [1]): + (between 1% and 5%)
COc1ccc2c(Sc3ccccc3[N+](=O)[O-])cn(Cc3cc(F)cc(F)c3F)c2c1 [Compound 95, 6-Methoxy-3-(2-nitro-phenylsulfanyl)-1-(2,3,5-trifluoro-benzyl)-1H-indole]	–	ago efficacy (human androgen receptor [1]): ++ (≥0.80); ago potency (human androgen receptor [1]): ± (between 0.1 % and 1%)
CNC(=O)c1ccc2c(Sc3ccccc3[N+](=O)[O-])cn(Cc3ccccn3)c2c1 [Compound 110, 3-(2-Nitro-phenylsulfanyl)-1-pyridin-2-ylmethyl-1H-indole-6-carboxylic acid methylamide]	–	ago efficacy (human androgen receptor [1]): + (between 0.50 and 0.80); ago potency (human androgen receptor [1]): + (between 1% and 5%)
O=CNc1ccc2c(Sc3ccccc3[N+](=O)[O-])cn(Cc3cncnc3)c2c1 [Compound 118, N-[3-(2-Nitro-phenylsulfanyl)-1-pyrimidin-5-ylmethyl-1H-indol-6-yl]-formamide]	–	ago efficacy (human androgen receptor [1]): + (between 0.50 and 0.80); ago potency (human androgen receptor [1]): ++ (>5%)
COc1ccc2c(Sc3ccccc3[N+](=O)[O-])cn(Cc3ccncc3)c2c1 [Compound 93]	–	ago efficacy (human androgen receptor [1]): + (between 0.50 and 0.80); ago potency (human androgen receptor [1]): ± (between 0.1 % and 1%)
COc1ccc2c(Sc3ccccc3[N+](=O)[O-])cn(Cc3ccc(C)cc3)c2c1 [Compound 85]	20 to 50	–
COc1ccc(Cn2cc(Sc3ccccc3[N+](=O)[O-])c3ccc(OC)cc32)cc1 [Compound 84]	> 80	–
COc1ccc2c(Sc3ccccc3[N+](=O)[O-])cn(Cc3ccccc3C#N)c2c1 [Compound 4]	20 to 50	–
O=C(c1ccc2c(Sc3ccccc3[N+](=O)[O-])cn(Cc3cc(F)cc(F)c3)c2c1)N1CCCC1 [Compound 27]	< 20	–
COc1ccc2c(Sc3ccccc3[N+](=O)[O-])cn(Cc3ccc(Cl)s3)c2c1 [Compound 88]	< 20	–
COc1ccc2c([S+]([O-])c3ccccc3[N+](=O)[O-])cn(Cc3cc(F)cc(F)c3)c2c1 (centres unmarked) [Compound 64, 1-(3,5-Difluoro-benzyl)-6-methoxy-3-(2-nitro-benzenesulfinyl)-1H-indole]	50 to 80	–
COc1ccc2c(Sc3ccccc3[N+](=O)[O-])cn(Cc3ccccn3)c2c1 [Compound 10, 6-Methoxy-3-(2-nitro-phenylsulfanyl)-1-pyridin-2 ylmethyl-1H-indole monohydrochloride]	< 20	–
O=C(NCCO)c1ccc2c(Sc3ccccc3[N+](=O)[O-])cn(Cc3cc(F)cc(F)c3)c2c1 [Compound 37]	< 20	–
COc1ccc2c(Sc3ccccc3[N+](=O)[O-])cn(CC3CCCCO3)c2c1 (centres unmarked) [Compound 11]	–	Emax (human androgen receptor [2]; [4]): < 20%
O=[N+]([O-])c1ccccc1Sc1cn(Cc2cc(F)cc(F)c2)c2cc(F)ccc12 [Compound 50]	< 20	–
O=[N+]([O-])c1ccccc1Sc1cn(Cc2cc(F)cc(F)c2)c2ccc(F)cc12 [Compound 53]	< 20	–
COc1ccc2c(c1)c(Sc1ccccc1[N+](=O)[O-])cn2Cc1ccccc1 [Compound 91]	> 80	–
COc1ccc2c(Sc3ccccc3CO)cn(Cc3cc(F)cc(F)c3)c2c1 [Compound 16, {2-[1-(3,5-Difluoro-benzyl)-6-methoxy-1H-indol-3-ylsulfanyl]-phenyl}-methanol]	–	Emax (human androgen receptor [2]; [4]): 20 to 50%
COc1ccc2c(S(=O)(=O)c3ccccc3[N+](=O)[O-])cn(Cc3cc(F)cc(F)c3)c2c1 [Compound 62, 1-(3,5-Difluoro-benzyl)-6-methoxy-3-(2-nitro-benzenesulfonyl)-1H-indole]	< 20	–
COc1ccc2c(Sc3ccccc3[N+](=O)[O-])cn(Cc3c(C)noc3C)c2c1 [Compound 80]	20 to 50	EC50 (human androgen receptor [2]; in the presence of 1 nM DHT): > 10 µM

Compound	Emax (human androgen receptor [2]; [3]) [%]	also measured
Cc1cccc2c1c(Sc1ccccc1[N+](=O)[O-])cn2Cc1cc(F)cc(F)c1 [Compound 55]	< 20	–
CC(C)NC(=O)c1ccc2c(Sc3ccccc3[N+](=O)[O-])cn(Cc3cc(F)cc(F)c3)c2c1 [Compound 46]	–	EC50 (human androgen receptor [2]; in the presence of 1 nM DHT): > 10 µM; Emax (human androgen receptor [2]; [4]): 20 to 50%
COc1ccc2c(Sc3ccccc3[N+](=O)[O-])cn(Cc3cccc(F)c3)c2c1 [Compound 71]	< 20	–
O=C(NCC1CC1)c1ccc2c(Sc3ccccc3[N+](=O)[O-])cn(Cc3cc(F)cc(F)c3)c2c1 [Compound 41]	< 20	–
N#Cc1ccc2c(Sc3ccccc3[N+](=O)[O-])cn(Cc3cc(F)cc(F)c3)c2c1 [Compound 26, 1-(3,5-Difluoro-benzyl)-3-(2-nitro-phenylsulfanyl)-1H-indole-6-carbonitrile]	< 20	–
COc1ccc2c(Sc3ccccc3[N+](=O)[O-])cn(Cc3cc(C)on3)c2c1 [Compound 13]	< 20	–
COc1cccc(Cn2cc(Sc3ccccc3[N+](=O)[O-])c3ccc(OC)cc32)c1 [Compound 72]	< 20	–
O=[N+]([O-])c1ccccc1Sc1cn(Cc2cc(F)cc(F)c2)c2cc(O)ccc12 [Compound 61, 1-(3,5-Difluoro-benzyl)-3-(2-nitro-phenylsulfanyl)-1H-indol-6-ol]	< 20	EC50 (human androgen receptor [2]; in the presence of 1 nM DHT): > 10 µM
COc1ccc2c(Sc3ccccc3[N+](=O)[O-])cn(Cc3cc(Cl)cc(Cl)c3)c2c1 [Compound 15]	< 20	–
O=C(Nc1ccc2c(Sc3ccccc3[N+](=O)[O-])cn(Cc3cc(F)cc(F)c3)c2c1)C(F)(F)F [Compound 59, N-[1-(3,5-Difluoro-benzyl)-3-(2-nitro-phenylsulfanyl)-1H-indol-6-yl]-2,2,2-trifluoroacetamide]	< 20	–
COc1ccc2c(Sc3ccccc3[N+](=O)[O-])cn(Cc3cccc([N+](=O)[O-])c3)c2c1 [Compound 74]	–	Emax (human androgen receptor [2]; [4]): < 20%
O=[N+]([O-])c1ccccc1Sc1cn(Cc2ccccc2)c2ccccc12 [Compound 90]	< 20	–
O=C(NC1CC1)c1ccc2c(Sc3ccccc3[N+](=O)[O-])cn(Cc3cc(F)cc(F)c3)c2c1 [Compound 44]	< 20	–
COc1ccc2c(Sc3ccccc3[N+](=O)[O-])cn(Cc3cc(F)ccc3C(F)(F)F)c2c1 [Compound 70]	< 20	–
O=C(O)c1ccc2c(Sc3ccccc3[N+](=O)[O-])cn(Cc3cc(F)cc(F)c3)c2c1 [Compound 30, 1-(3,5-Difluoro-benzyl)-3-(2-nitro-phenylsulfanyl)-1H-indole-6-carboxylic acid]	< 20	–
COc1ccc2c(Sc3ccccc3[N+](=O)[O-])cn(Cc3ccccc3Cl)c2c1 [Compound 3]	< 20	–
COc1ccc2c(Sc3ccccc3[N+](=O)[O-])cn(Cc3ccccn3)c2c1 [Compound 9, 6-Methoxy-3-(2-nitro-phenylsulfanyl)-1-pyridin-2-ylmethyl-1H-indole]	–	Emax (human androgen receptor [2]; [4]): 20 to 50%
CN(C)C(=O)CNC(=O)c1ccc2c(Sc3ccccc3[N+](=O)[O-])cn(Cc3cc(F)cc(F)c3)c2c1 [Compound 40]	< 20	–
CN(C)CCNC(=O)c1ccc2c(Sc3ccccc3[N+](=O)[O-])cn(Cc3cc(F)cc(F)c3)c2c1 [Compound 36]	< 20	–
